Measured values from patent US20210163404A1, “NOVEL UREA COMPOUNDS AND BIOISOSTERES THEREOF AND THEIR USE FOR TREATING INFLAMMATION AND INFLAMMATION-RELATED PATHOLOGIES” (UNIVERSITÉ LAVAL, priority 2017, published 2021).

Legend:
[1] = system: HT-29 colon adenocarcinoma cells; assay: Antiproliferative activity (NCI procedure, sulforhodamine B), HT-29; format: cell-based, human; conditions: Homo sapiens, HT-29, unit inferred, tested 781 nM to 100 μM, 48 h
Description: (§1) The antiproliferative activity of compounds 3a-b, 4a-e, 5a-e and 6a-e was subsequently evaluated using the human HT-29 colon adenocarcinoma and the A549 adenocarcinoma alveolar epithelial cancer cell lines, the HaCaT spontaneously transformed aneuploid immortal keratinocyte cell line and the HDFn neonatal dermal fibroblast cell line (Table 2). Cell growth inhibition was assessed according to the NCI/NIH Developmental Therapeutics Program.
(§2) The antiproliferative activity assay of all compounds was assessed using the procedure recommended by the National Cancer Institute for its drug screening program with minor modifications. Briefly, 96-well microtiter plates were seeded with 75 μL of a suspension of either HaCaT (5×10^3), HT-29 (3.0×10^3), A549 (3.0×10^3) or HDFn (3×10^3) cells per well in DMEM and incubated for 24 h at 37° C. in a moisture-saturated atmosphere containing 5% CO2. Compounds freshly solubilized in DMSO (40 mM) were diluted in fresh DMEM, and 75 μL aliquots containing serially diluted concentrations of the compound were added. Final compound concentrations ranged from 100 μM to 781 nM. DMSO was maintained at a concentration of <0.5% (v/v) to avoid any related cytotoxicity. Plates were subsequently incubated for 48 h. Cell growth was then stopped by the addition of cold trichloroacetic acid to the wells (10% w/v, final concentration), followed by a 1 h incubation period at 4° C. The plates were washed 4-times with water. A sulforhodamine B solution (75 μL; 0.1% w/v) in acetic acid (1%) was subsequently added to each well and the plates incubated over a 15 min period while at room temperature. After staining, any unbound dye was removed by washing 4-times with an acetic acid solution (1%). Bound dye was solubilized in 20 mM Tris base and the absorbance was measured at an optimal wavelength (530-568 nm) using a μQuant® Universal microplate spectrophotometer (BioTek, Winooski, Vt.). The measurements for treated cells were compared with measurements from control cell plates fixed on treatment day and the percentage of cell growth inhibition was calculated for each drug. The experiments were performed at least twice in triplicate. The assays were considered valid when the coefficient of variation for a given set of conditions and within the same experiment was <10%.

[2] = system: HaCaT keratinocyte cell line; assay: Antiproliferative activity (NCI procedure, sulforhodamine B), HaCaT; format: cell-based, human; conditions: Homo sapiens, HaCaT, unit inferred, tested 781 nM to 100 μM, 48 h
Description: as §1, §2

[3] = system: A549 adenocarcinoma alveolar epithelial cancer cells; assay: Antiproliferative activity (NCI procedure, sulforhodamine B), A549; format: cell-based, human; conditions: Homo sapiens, A549, unit inferred, tested 781 nM to 100 μM, 48 h
Description: as §1, §2

[4] = system: HDFn neonatal dermal fibroblast cell line; assay: Antiproliferative activity (NCI procedure, sulforhodamine B), HDFn; format: cell-based, human; conditions: Homo sapiens, Fibroblast, unit inferred, tested 781 nM to 100 μM, 48 h
Description: as §1, §2

melting point [°C] | Compound | IC50 ([1]; Table 5) [µM] | IC50 ([2]; Table 5) [µM] | IC50 ([3]; Table 5) [µM] | IC50 ([4]; Table 5) [µM] | other results
179 to 199 | CC(C)(C)NC(=O)Nc1ccc(I)cc1 [Compound 2] | 32.9 | 44.7 | 37.1 | 27.1 | 
197 to 199 | CCCNC(=O)Nc1ccc(I)cc1 [Compound 3] | 51.9 | 94.9 | 82.7 | 81.3 | 
153 to 156 | CC(C)NC(=O)Nc1cccc(I)c1 [Compound 4] | > 100 | 94.5 | 80.3 | 59.1 | 
189 to 193 | CC(C)(C)NC(=O)Nc1cccc(I)c1 [Compound 5] | 81.3 | > 100 | 61.8 | 17.4 | 
132 to 136 | CCCNC(=O)Nc1cccc(I)c1 [Compound 6] | 87.9 | 99.7 | 80 | 44.2 | 
152 to 155 | CC(C)NC(=O)Nc1ccc(C(C)(C)C)cc1 [Compound 7] | 74.2 | > 100 | 83.2 | 57.4 | 
167 to 174 | CC(C)(C)NC(=O)Nc1ccc(C(C)(C)C)cc1 [Compound 8] | 35.6 | 55 | 34.2 | 14.5 | 
147 to 151 | CCCNC(=O)Nc1ccc(C(C)(C)C)cc1 [Compound 9] | 54.9 | > 100 | 67.1 | 10.5 | 
146 to 149 | CC(C)NC(=O)Nc1cccc(C(C)(C)C)c1 [Compound 10] | 85.2 | > 100 | 96.8 | 92.4 | 
161 to 170 | CC(C)(C)NC(=O)Nc1cccc(C(C)(C)C)c1 [Compound 11] | 34.9 | 46.5 | 36.7 | 13.1 | 
138 to 141 | CCCNC(=O)Nc1cccc(C(C)(C)C)c1 [Compound 12] | > 100 | > 100 | > 100 | 81.5 | 
163 to 170 | CC(C)NC(=O)Nc1ccc(C2CCCCC2)cc1 [Compound 13] | 56.9 | > 100 | 60.8 | 59.1 | 
182 to 189 | CC(C)(C)NC(=O)Nc1ccc(C2CCCCC2)cc1 [Compound 14] | 25.5 | 35.4 | 18.5 | 17.2 | 
166 to 168 | CCCNC(=O)Nc1ccc(C2CCCCC2)cc1 [Compound 15] | > 100 | > 100 | > 100 | 59.1 | 
178 to 181 | CC(C)NC(=O)Nc1cccc(C2CCCCC2)c1 [Compound 16] | > 100 | > 100 | > 100 | 30.5 | 
195 to 203 | CC(C)(C)NC(=O)Nc1cccc(C2CCCCC2)c1 [Compound 17] | 58.3 | 87.9 | 44.1 | 16.3 | 
131 to 134 | CCCNC(=O)Nc1cccc(C2CCCCC2)c1 [Compound 18] | 24.1 | 32 | 21 | 23 | 
141 to 143 | COCCNC(=O)Nc1ccc(I)cc1 [Compound 26, 1-(4-Iodophenyl)-3-(2-methoxyethyl)urea] |  |  |  |  | 
168 to 170 | CC(C)(C)c1ccc(NC(=O)NCC2CC2)cc1 [Compound 28, 1-(4-(t-Butyl)phenyl)-3-(cyclopropylmethyl)urea] |  |  |  |  | 
189 to 190 | CC(C)(C)c1ccc(NC(=O)NC2CCC2)cc1 [Compound 29, 1-(4-(t-Butyl)phenyl)-3-cyclobutylurea] |  |  |  |  | 
122 to 124 | COCCNC(=O)Nc1ccc(C(C)(C)C)cc1 [Compound 33, 1-(4-(t-Butyl)phenyl)-3-(2-methoxyethyl)urea] |  |  |  |  | 
119 to 121 | CCC(CC)NC(=O)Nc1ccc(C(C)(C)C)cc1 [Compound 34, 1-(4-(t-Butyl)phenyl)-3-(pentan-3-yl)urea] |  |  |  |  | 

melting point [°C] | Compound | IC50 ([1]; Table 5) [µM] | IC50 ([2]; Table 5) [µM] | IC50 ([3]; Table 5) [µM] | IC50 ([4]; Table 5) [µM] | other results
201 to 202 | O=C(Nc1ccc(I)cc1)NC1CC=CC1 [Compound 35, 1-(Cyclopent-3-en-1-yl)-3-(4-iodophenyl)urea] |  |  |  |  | 
139 to 140 | O=C(NCC1CC1)Nc1cccc(I)c1 [Compound 37, 1-(Cyclopropylmethyl)-3-(3-iodophenyl)urea] |  |  |  |  | 
178 to 180 | O=C(Nc1cccc(I)c1)NC1CCC1 [Compound 38, 1-Cyclobutyl-3-(3-iodophenyl)urea] |  |  |  |  | 
151 to 153 | O=C(Nc1cccc(I)c1)NC1CC=CC1 [Compound 41, 1-(Cyclopent-3-en-1-yl)-3-(3-iodophenyl)urea] |  |  |  |  | 
99 to 101 | COCCNC(=O)Nc1cccc(I)c1 [Compound 42, 1-(3-Iodophenyl)-3-(2-methoxyethyl)urea] |  |  |  |  | 
114 to 115 | CC(C)(C)CNC(=O)Nc1cccc(I)c1 [Compound 43, 1-(3-Iodophenyl)-3-neopentylurea] |  |  |  |  | 
165 to 166 | CC(C)(C)c1cccc(NC(=O)NCC2CC2)c1 [Compound 45, 1-(3-(t-Butyl)phenyl)-3-(cyclopropylmethyl)urea] |  |  |  |  | 
165 to 166 | CC(C)(C)c1cccc(NC(=O)NC2CCC2)c1 [Compound 46, 1-(3-(t-Butyl)phenyl)-3-cyclobutylurea] |  |  |  |  | 
113 to 114 | CC(C)(C)c1cccc(NC(=O)NCC2CCCC2)c1 [Compound 49] |  |  |  |  | 
135 to 137 | CC(C)(C)c1cccc(NC(=O)NC2CC=CC2)c1 [Compound 50, 1-(3-(t-Butyl)phenyl)-3-(cyclopent-3-en-1-yl)urea] |  |  |  |  | 
145 to 147 | CC(C)(C)CNC(=O)Nc1cccc(C(C)(C)C)c1 [Compound 51, 1-(3-(t-Butyl)phenyl)-3-neopentylurea] |  |  |  |  | 
119 to 120 | COCCNC(=O)Nc1cccc(C(C)(C)C)c1 [Compound 52, 1-(3-(t-Butyl)phenyl)-3-(2-methoxyethyl)urea] |  |  |  |  | 
159 to 161 | CCC(CC)NC(=O)Nc1cccc(C(C)(C)C)c1 [Compound 53, 1-(3-(t-Butyl)phenyl)-3-(pentan-3-yl)urea] |  |  |  |  | 
178 to 181 | O=C(NCC1CC1)Nc1ccc(C2CCCCC2)cc1 [Compound 55, 1-(4-Cyclohexylphenyl)-3-(cyclopropylmethyl)urea] |  |  |  |  | 
142 to 144 | O=C(NCC1CCCC1)Nc1ccc(C2CCCCC2)cc1 [Compound 59] |  |  |  |  | 
167 to 169 | O=C(Nc1ccc(C2CCCCC2)cc1)NC1CC=CC1 [Compound 60, 1-(4-Cyclohexylphenyl)-3-(cyclopent-3-en-1-yl)urea] |  |  |  |  | 
167 to 169 | CC(C)(C)CNC(=O)Nc1ccc(C2CCCCC2)cc1 [Compound 61, 1-(4-Cyclohexylphenyl)-3-neopentylurea] |  |  |  |  | 
174 to 176 | CCC(CC)NC(=O)Nc1ccc(C2CCCCC2)cc1 [Compound 62, 1-(4-Cyclohexylphenyl)-3-(pentan-3-yl)urea] |  |  |  |  | 
174 to 176 | CCC(CC)NC(=O)Nc1ccc(I)cc1 [Compound 64, 1-(4-Iodophenyl)-3-(pentan-3-yl)urea] |  |  |  |  | 
185 to 187 | CC(C)(C)CNC(=O)Nc1ccc(C(C)(C)C)cc1 [Compound 65, 1-(4-(t-Butyl)phenyl)-3-neopentylurea] |  |  |  |  | 
141 to 144 | CCNC(=O)Nc1cccc(C2CCCCC2)c1 [Compound 66] |  |  |  |  | IC50 ([1]; Table 6): 31 µM; IC50 ([2]; Table 6): 37 µM; IC50 ([3]; Table 6): 58 µM; IC50 ([4]; Table 6): 31 µM
138 to 144 | O=C(Nc1cccc(C2CCCCC2)c1)NC1CC1 [Compound 67] |  |  |  |  | IC50 ([1]; Table 6): 26 µM; IC50 ([2]; Table 6): 17 µM; IC50 ([3]; Table 6): 37 µM; IC50 ([4]; Table 6): 25 µM
